Laboratory results as given in PMC5867665, “Targeting Multiple Effector Pathways in Pancreatic Ductal Adenocarcinoma with a G-Quadruplex-Binding Small Molecule” (Journal of Medicinal Chemistry, 2018).

Key:
PANC-1 cells = assay: RNA-seq gene expression, PANC-1; assay type: cell-based, human; details: for 1/2-SBSRNA4 logFC PANC-1 / A1BG logFC PANC-1 / A1BG-AS1 logFC PANC-1 / A2LD1 logFC PANC-1 / A4GALT logFC PANC-1: 300 nM gemcitabine
Excerpt: (§1) CM03 is a potent G4 ligand, as shown by the FRET and quantitative binding experiments reported here. We therefore reasoned that the potent CM03 antiproliferative activity on PDAC cells could be mediated through a G4-targeting mechanism. To test this hypothesis, we determined whether transcriptome changes upon early CM03 treatment were correlated with G4 presence in promoters and/or gene bodies. […] The time and dose of CM03 treatment were selected to reveal initial but robust mRNA changes while minimizing chronic effects due to cell toxicity. In both cell lines, the number of genes with altered expression (as defined by >0.5 increase in Log 2 of fold change [Log2 FC], or < −0.5 decrease; false discovery rate [FDR] < 0.1) increased with duration of CM03 treatment. In PANC-1 cells 2165 genes at 6 h and 3977 genes at 24 h were seen to change, while in MIA PaCa-2 cells, 5306 genes changed at 6 h and 5477 genes at 24 h compared to untreated controls (Supporting Information, Table 1). […] To validate that the targeting of G4-containing genes is not a general feature of antiproliferative agents, we also examined the effects of the first-line therapeutic agent for PDAC, gemcitabine,[37] a potent antiproliferative DNA synthesis inhibitor whose mechanism of action is G4-independent and which remains a standard therapy option in advanced PDAC. Both cell lines were treated with a range of gemcitabine concentrations (Supporting Information, Figure 4, Table 4) for 6 or 24 h.
(§2) The PDAC cell lines PANC-1 (ATCC, catalogue no. CRL-1469) and MIA PaCa-2 (ATCC, catalogue no. CRL-142) were maintained in DMEM (ThermoFisher, catalogue no. 11965092) supplemented with 10% (v/v) heat inactivated FBS (ThermoFisher) in a humidified atmosphere containing 5% CO2 at 37 °C. Cell lines were confirmed mycoplasma free by RNA-capture ELISA, and their genotypes were certified by STR profiling.
(§3) PANC-1 (0.35 × 10^6 cells/well) and MIA PaCa-2 (1.5 × 10^6 cells/well) cell lines were seeded overnight in 60 mm plates. Next day, cells were treated with 400 nM CM03 for 6 and 24 h. For gemcitabine treatment, cells were treated for 6 and 24 h with DMSO or 30 nM, 100 nM, 300 nM, 1 μM, 3 μM, and 10 μM gemcitabine-HCL for PANC-1 cells and 30 nM, 300 nM, and 3 μM gemcitabine-HCl for MIA PaCa-2 cells. Total RNA was extracted using the Qiagen RNeasy Plus Mini Kit (ThermoFisher, catalogue no. 74134) as per the manufacturer’s instructions. RNA quality (RIN > 9.0) was checked with an Aligent 2100 bioanalyzer RNA 6000 Nano Chip, and RNA concentration was quantified using a Qubit fluorometer (ThermoFisher) and Qubit RNA HS Assay Kit (Qiagen, catalogue no. Q32852). RNA-seq libraries were then generated using the Illumina Truseq RNA HT (stranded mRNA) kit (Illumina, catalogue no. RS-122–2103) as per the manufacturer’s instructions and sequenced using an Illumina HiSeq4000.
(§4) Fastq raw sequencing files were preprocessed using cutadapt[81] to remove sequencing adapters and low quality sequencing tails (options −q 10) and then aligned to the human genome (GRCh37/hg19) using tophat2[82] and using the UCSC gtf file provided by Illumina iGenomes as an annotation file (http://support.illumina.com/sequencing/sequencing_software/igenome.html). Gene counts were calculated using htseq-count[83] and the same gtf file. Differential expression analysis was done using the R package edgeR.[84] Differentially expressed genes were estimated independently for both cell lines (MIA PaCa-2 and PANC-1) and for the different time points (6 and 24 h) and were then intersected to inspect the common genes. The sequencing data is available at the GEO public functional genomics data repository (https://www.ncbi.nlm.nih.gov/geo/) as GSE105083. Details of the putative G4 sequence (PQs) analysis are given in the Supporting Information.

MIA PaCa-2 cells = assay: RNA-seq gene expression, MIA PaCa-2; assay type: cell-based, human; details: for 1/2-SBSRNA4 logFC MIA PaCa-2 / A1BG logFC MIA PaCa-2 / A1BG-AS1 logFC MIA PaCa-2 / A2LD1 logFC MIA PaCa-2 / A4GALT logFC MIA PaCa-2: 300 nM gemcitabine
Excerpt: as §1, §2, §3, §4

O=C1c2ccc3c4c(c(NCCN5CCCC5)cc(c24)C(=O)N1CCCN1CCOCC1)C(=O)N(CCCN1CCOCC1)C3=O [CM03, 2,7-bis(3-morpholinopropyl)-4-((2-(pyrrolidin-1-yl)ethyl)amino)benzo[lmn][3,8]phenanthroline-1,3,6,8(2H,7H)-tetraone]
number of genes with altered expression (PANC-1 cells; 400 nM CM03, 6 h, PANC-1, Log2 FC >0.5 or < −0.5, FDR < 0.1): 2165
number of genes with altered expression (PANC-1 cells; 400 nM CM03, 24 h, PANC-1): 3977
A1BG Log FC ([6h] vs [Control]) PANC-1 (PANC-1 cells; RNA-seq, 400 nM CM03, 6 h): -0.2704
A1BG-AS1 Log FC ([6h] vs [Control]) PANC-1 (PANC-1 cells; RNA-seq, 400 nM CM03, 6 h): -1.747
A2LD1 Log FC ([6h] vs [Control]) PANC-1 (PANC-1 cells; RNA-seq, 400 nM CM03, 6 h): -0.1242
AAAS Log FC ([6h] vs [Control]) PANC-1 (PANC-1 cells; RNA-seq, 400 nM CM03, 6 h): -0.01012
AACS logFC 6h PANC-1 (PANC-1 cells; RNA-seq, 400 nM CM03, 6 h): -0.1667
A1BG Log FC ([24h] vs [Control]) PANC-1 (PANC-1 cells; RNA-seq, 400 nM CM03, 24 h): -0.2368
A2LD1 Log FC ([24h] vs [Control]) PANC-1 (PANC-1 cells; RNA-seq, 400 nM CM03, 24 h): -0.09987
AAAS Log FC ([24h] vs [Control]) PANC-1 (PANC-1 cells; RNA-seq, 400 nM CM03, 24 h): -0.5132
AACS logFC 24h PANC-1 (PANC-1 cells; RNA-seq, 400 nM CM03, 24 h): 0.00469
1/2-SBSRNA4 Log FC ([6h] vs [Control]) MIA PaCa-2 (MIA PaCa-2 cells; 400 nM CM03, 6 h): 0.2926
A1BG Log FC ([6h] vs [Control]) MIA PaCa-2 (MIA PaCa-2 cells; 400 nM CM03, 6 h): 0.4876
A2LD1 Log FC ([6h] vs [Control]) MIA PaCa-2 (MIA PaCa-2 cells; 400 nM CM03, 6 h): -0.3929
AAAS Log FC ([6h] vs [Control]) MIA PaCa-2 (MIA PaCa-2 cells; 400 nM CM03, 6 h): -0.00561
AACS LogFC 6h MIA PaCa-2 (MIA PaCa-2 cells; 400 nM CM03, 6 h): 0.2527
1/2-SBSRNA4 Log FC ([24h] vs [Control]) MIA PaCa-2 (MIA PaCa-2 cells; 400 nM CM03, 24 h): 0.1438
A1BG Log FC ([24h] vs [Control]) MIA PaCa-2 (MIA PaCa-2 cells; 400 nM CM03, 24 h): -0.4265
A2LD1 Log FC ([24h] vs [Control]) MIA PaCa-2 (MIA PaCa-2 cells; 400 nM CM03, 24 h): 0.03755
A4GALT Log FC ([24h] vs [Control]) MIA PaCa-2 (MIA PaCa-2 cells; 400 nM CM03, 24 h): 0.6327
AAAS Log FC ([24h] vs [Control]) MIA PaCa-2 (MIA PaCa-2 cells; 400 nM CM03, 24 h): -0.483
AACS LogFC 24h MIA PaCa-2 (MIA PaCa-2 cells; 400 nM CM03, 24 h): -0.2395

Nc1ccn([C@@H]2O[C@H](CO)[C@@H](O)C2(F)F)c(=O)n1 [gemcitabine, reference compound]
1/2-SBSRNA4 logFC PANC-1 (PANC-1 cells; RNA-seq, 6 h): 0.2646
A1BG logFC PANC-1 (PANC-1 cells; RNA-seq, 6 h): -0.08914
A1BG-AS1 logFC PANC-1 (PANC-1 cells; RNA-seq, 6 h): 0.1407
A2LD1 logFC PANC-1 (PANC-1 cells; RNA-seq, 6 h): -0.1053
A4GALT logFC PANC-1 (PANC-1 cells; RNA-seq, 6 h): 0.005472
1/2-SBSRNA4 logFC PANC-1 (PANC-1 cells; RNA-seq, 24 h): 0.6908
A1BG logFC PANC-1 (PANC-1 cells; RNA-seq, 24 h): -0.1465
A1BG-AS1 logFC PANC-1 (PANC-1 cells; RNA-seq, 24 h): 1.012
A2LD1 logFC PANC-1 (PANC-1 cells; RNA-seq, 24 h): -0.7315
A4GALT logFC PANC-1 (PANC-1 cells; RNA-seq, 24 h): 0.6241
1/2-SBSRNA4 logFC MIA PaCa-2 (MIA PaCa-2 cells; 6 h): -0.2087
A1BG logFC MIA PaCa-2 (MIA PaCa-2 cells; 6 h): 0.04195
A1BG-AS1 logFC MIA PaCa-2 (MIA PaCa-2 cells; 6 h): -0.914
A2LD1 logFC MIA PaCa-2 (MIA PaCa-2 cells; 6 h): -0.1941
A4GALT logFC MIA PaCa-2 (MIA PaCa-2 cells; 6 h): -0.8586
1/2-SBSRNA4 logFC MIA PaCa-2 (MIA PaCa-2 cells; 24 h): -0.5295
A1BG logFC MIA PaCa-2 (MIA PaCa-2 cells; 24 h): 0.6604
A1BG-AS1 logFC MIA PaCa-2 (MIA PaCa-2 cells; 24 h): -0.1194
A2LD1 logFC MIA PaCa-2 (MIA PaCa-2 cells; 24 h): -0.3751
A4GALT logFC MIA PaCa-2 (MIA PaCa-2 cells; 24 h): -0.2021
